# Test results published in a compilation of properties of binary mixtures (doi:10.1002/aic.14507).
# Experiment: xn = mol fraction of the nth substance listed
# Conditions: 100 kPa
"viscosity (303 K, x1 = 0.5482)","viscosity (313 K, x1 = 0.5482)","viscosity (318 K, x1 = 0.5482)","viscosity (323 K, x1 = 0.5482)","viscosity (303 K, x1 = 0.4462)","viscosity (303 K, x1 = 0.6298)","viscosity (313 K, x1 = 0.0098)","viscosity (313 K, x1 = 0.0219)","viscosity (313 K, x1 = 0.037)","viscosity (313 K, x1 = 0.1184)","viscosity (313 K, x1 = 0.1728)","viscosity (313 K, x1 = 0.4462)","viscosity (313 K, x1 = 0.6298)","viscosity (318 K, x1 = 0.4462)","viscosity (318 K, x1 = 0.6298)","viscosity (323 K, x1 = 0.4462)","viscosity (323 K, x1 = 0.6298)",SMILES
42.67 mPa·s,28.9 mPa·s,24.3 mPa·s,20.63 mPa·s,,,,,,,,,,,,,,CCCCCCCCn1cc[n+](C)c1.F[B-](F)(F)F + O
,,,,17.21 mPa·s,35.74 mPa·s,0.819 mPa·s,0.971 mPa·s,1.24 mPa·s,2.753 mPa·s,3.908 mPa·s,12.64 mPa·s,24.64 mPa·s,11 mPa·s,20.86 mPa·s,9.66 mPa·s,17.88 mPa·s,CCCC[n+]1ccn(C)c1.O=[N+]([O-])[O-] + O
